Experimental data published in US10624992B2, “Human airway stem cells in lung epithelial engineering” (The General Hospital Corporation, priority 2016, dated 2020).

Assays:
[1] = tested on: primary human lung epithelial basal cells; test: Effect of ROCK inhibitor on cell phenotype and senescence during cell isolation and passage; type: cell-based
Method: FIGS. 8A-C: Effect of ROCK Inhibitor on Cell Phenotype and Senescence. […] Donor lung peripheral tissue (1-inch cubed) was washed in αMEM and then chopped into ˜¼ inch pieces with scissors and digested in 0.1 mg/ml DNAse (Sigma) and 1.4 mg/ml Pronase (Roche, 11459643001) for 24 hours/4° C. (52). Digested tissue was plated onto uncoated culture flasks in SAGM for 30 minutes/37° C., then non-adherent cells transferred and adhered to human Collagen-IV (Sigma-Aldrich C7521)-coated flasks. Epithelial cells were maintained in SAGM (Lonza, CC-3118) and passaged at 80% confluent (approximately 3-5 days/passage). For cells treated with γ-secretase inhibitors (1) 3-Isobutyl-1-methylxanthine (100 μg/ml IBMX, Sigma-Aldrich, 15879) and (2) N-[(3,5-Difluorophenyl)acetyl]-L-alanyl-2-phenyl]glycine-1,1-dimethylethyl ester (50 μg/ml DAPT, Selleck Chemicals, S2215), media was changed daily. Primary endothelial cells were isolated from the large vessels of donor lungs using the same digestion protocol. The endothelial population was sorted for CD31^+ purity by flow cytometry, and maintained and expanded on Gelatin coated flasks in EGM2 (Lonza, CC-3162) until utilized for human lung recellularization (See FIGS. 7A-B). […] Quantitative gene expression was analyzed using Taqman probes and the OneStep Plus system (Applied Biosystems). […]

[2] = tested on: BESCs on acellular rat lung scaffolds; test: Rat lung scaffold recellularization and ex vivo culture with Notch inhibitors; type: cell-based, human; conditions: DAPT 50 nM in vitro 5 days, then 5 days ex vivo on rat lung scaffold without inhibitors
Method: Primary lung epithelial cells (passage 3) were harvested from 2-D culture, counted, and re-introduced to the scaffold airways in solution (20 ml) by gravity. Continuous media perfusion through the pulmonary artery was maintained at 4 ml/min by peristaltic pump and changed daily.
RNA was isolated using the RNEasy Plus (Qiagen). cDNA was transcribed using the Superscript III kit (Invitrogen). Quantitative gene expression was analyzed using Taqman probes and the OneStep Plus system (Applied Biosystems). Expression was normalized to β-Actin expression and relative to cadaveric lung tissue control samples.
Primary Antibodies (1:100): p63 (Santa Cruz, sc-25268), Krt5 (Abcam, ab24647), E-cadherin (BD, 610181), Surfactant Protein-B (Millipore, AB3430), pro-Surfactant Protein-C (Abcam, ab3786), Aquaporin-5 (Abcam, ab92320), Acetylated α-Tubulin (Abcam, ab24610), α2β1 integrin (Abcam, ab24697), α3β1 integrin (Abcam, ab24696), and CD31 (Daki, M082301-2). Secondary antibodies (1:400): Alexafluor 488 and 594 (Life Technologies).

[3] = tested on: primary epithelial basal cells (BESCs); test: Notch inhibitor treatment of primary epithelial basal cells in vitro (qPCR, immunofluorescence); type: cell-based, human; conditions: 5 days in vitro, compared to No Treatment
Method: Donor lung peripheral tissue (1-inch cubed) was washed in αMEM and then chopped into ˜¼ inch pieces with scissors and digested in 0.1 mg/ml DNAse (Sigma) and 1.4 mg/ml Pronase (Roche, 11459643001) for 24 hours/4° C. (52). Digested tissue was plated onto uncoated culture flasks in SAGM for 30 minutes/37° C., then non-adherent cells transferred and adhered to human Collagen-IV (Sigma-Aldrich C7521)-coated flasks. Epithelial cells were maintained in SAGM (Lonza, CC-3118) and passaged at 80% confluent (approximately 3-5 days/passage). For cells treated with γ-secretase inhibitors (1) 3-Isobutyl-1-methylxanthine (100 μg/ml IBMX, Sigma-Aldrich, 15879) and (2) N-[(3,5-Difluorophenyl)acetyl]-L-alanyl-2-phenyl]glycine-1,1-dimethylethyl ester (50 μg/ml DAPT, Selleck Chemicals, S2215), media was changed daily. Primary endothelial cells were isolated from the large vessels of donor lungs using the same digestion protocol. The endothelial population was sorted for CD31^+ purity by flow cytometry, and maintained and expanded on Gelatin coated flasks in EGM2 (Lonza, CC-3162) until utilized for human lung recellularization (See FIGS. 7A-B). RNA was isolated using the RNEasy Plus (Qiagen). cDNA was transcribed using the Superscript III kit (Invitrogen). Quantitative gene expression was analyzed using Taqman probes and the OneStep Plus system (Applied Biosystems). […]

BESCs [4] = test: In vitro culture of BESCs on Collagen IV plates supplemented with TN-C and/or FBN-2; type: cell-based, human; conditions: 7 d culture, compared to uncoated or Collagen IV coated wells
Method: 24-well plates were pre-coated with human Collagen IV (10 μg/ml) Sigma-Aldrich C7521) for 2 h at 37° C. After removal of the collagen solution, TN-C (10 μg/ml, R&D 3358-TC-050) or the recombinant N-terminal half (FBN-2-N) or C-terminal half (FBN-2-C) of human FBN-2 (10 μg/ml) (Lin et al., The Journal of biological chemistry. 2002; 277(52):50795-804) were then added to select wells, and incubated for 2 h at 37° C. A total of 1×10^5 BESC were subsequently plated to each well and cultured for 7 d in SAGM.
(§1) mRNA was isolated (Qiagen RNeasy Plus Kit) and transcribed to cDNA (Invitrogen SuperScript III). Gene expression was analyzed using Taqman probes and the OneStep Plus system (Applied Biosystems). Each biological sample was analyzed in experimental replicate (n=2 repeated wells of the qPCR reaction) and the Ct value of each replicate was averaged and handed as n=1 unique biologic sample. Expression for each sample was normalized to β-Actin (ACTA1) gene expression (ΔCt) and relative to cadaveric peripheral lung tissue control samples (ΔΔCt), with fold change calculated by 2-ΔΔCt (Livak and Schmittgen, Methods. 2001; 25(4):402-8). A total of n=3 unique biological samples were analyzed for each reported experiment.
After de-paraffinization and rehydration, 5 μm tissue section were permeabilized with 0.1% Triton X-100 for intracellular antigens, when appropriate. […]

[5] = tested on: BESCs on decellularized rat lung scaffolds; test: Ex vivo rat lung recellularization on scaffolds pre-coated with TN-C and/or FBN-2; type: cell-based, human; conditions: Day 3 and 7
Method: Decellularized lung scaffolds were pre-coated with (A) PBS control, (B) TN-C, 10 μg/ml, (C) FBN-2, (10 μg/ml each of N- and C-terminal fragment of FBN-2), or (D) TN-C+FBN-2 (10 μg/ml each of TN-C and of N- and C-terminal fragment of FBN-2), by delivery through the trachea. Solution was recycled to the trachea for 90 min at 37° C. A total of 20×10^6 primary lung epithelial cells (passage 3) were then delivered to the scaffold airways in 20 ml of SAGM by gravity. Constant media perfusion of SAGM through the pulmonary artery was maintained at 4 ml/min (pressure 15-20 mmHg) and changed daily. […]
as §1, with “experiment. […]” for “experiment.”

BESCs [6] = test: In vitro migration assay on protein coatings; type: cell-based, human; conditions: over 3 h, compared to Collagen IV coating alone, p<0.001; mixture of N- and C-terminal halves of FBN-2
Method: For migration assay, after coating as above, a small inset (MIDI) was added to the wells prior to cell seeding. A total of 1×10^4 cells were seeded within the insert and incubated for 12 h, before the insert was removed. Bright-field images were taken every 30 min for 180 min to track cell migration. Images were analyzed with ImageJ software (Schneider et al., Nature methods. 2012; 9(7):671-5) to quantify the change in cell-free area.

In the case of `C[C@@H](N)[C@H]1CC[C@H](C(=O)Nc2ccncc2)CC1` [Y-27632], the “basal cell population, proliferation (Ki67, PCNA) and senescence (CDKN2A)” value ([1]; during cell isolation and passage) was “did not enhance the basal cell population, or alter proliferation (Ki67, PCNA) or senescence” and the “gene expression, treated vs untreated” value ([1]; passage 1 and passage 4, n=3 cell lines, t-test) was “No significant differences”.

With `C[C@H](NC(=O)Cc1cc(F)cc(F)c1)C(=O)NC(C(=O)OC(C)(C)C)c1ccccc1` (stereo partly drawn) [DAPT] the “distal type2-like fate after in vitro pre-treatment and inhibitor withdrawal” value [2] was “maintained a distal type2-like fate” and the “SP-B and SP-C gene expression (type II pneumocyte markers)” value [3] was “ineffective alone”.

In the case of “TN-C: Tenascin-C glycoprotein (R&D 3358-TC-050), used as coating at 10 μg/ml”, the “proliferation (gene expression)” value (BESCs [4]) was “significantly greater proliferation”, the “senescence (gene expression)” value (BESCs [4]) was “less senescence” and the “Ki67 expression of Krt5+ BESCs (immunofluorescence)” value [5] was “significant increase in proliferation”. The “BESC migration rate (change in cell-free area)” value (BESCs [6]) was “Significantly higher rates of BESC migration”.

For `CC(C)Cn1c(=O)n(C)c(=O)c2[nH]cnc21` [IBMX, 3-Isobutyl-1-methylxanthine], the “SP-B and SP-C gene expression (type II pneumocyte markers)” value [3] was “ineffective alone”.
